Assays:
p300 = molecular target: T1, p300 (Homo sapiens, UniProt Q09472); test: P300 degradation, HiBit technology in A549 P300 HiBit cells (2 h); type: cell-based; conditions: 2 hrs post treatment; for Dmax: A549, A549 P300 HiBit cells; for DC50: A549 P300 HiBit cells
T1 construct: host or cells: A549 P300 HiBit cells
Procedure, shortened: (§1)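 Degradation potency and Dmax came from HiBiT luminescence in tagged A549 cells treated with serially diluted compound (DMSO stocks at 10 mM) after overnight equilibration in F-12K with 10% heat-inactivated FBS.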

CBP = molecular target: T2, CBP (Homo sapiens, UniProt Q92793); test: CBP degradation, HiBit technology in A549 CBP HiBit cells (24 h); type: cell-based; conditions: 24 hrs post treatment
T2 construct: host or cells: A549 CBP HiBit cells
Procedure, shortened: as §1

T1 sequence (Q09472 whole entry): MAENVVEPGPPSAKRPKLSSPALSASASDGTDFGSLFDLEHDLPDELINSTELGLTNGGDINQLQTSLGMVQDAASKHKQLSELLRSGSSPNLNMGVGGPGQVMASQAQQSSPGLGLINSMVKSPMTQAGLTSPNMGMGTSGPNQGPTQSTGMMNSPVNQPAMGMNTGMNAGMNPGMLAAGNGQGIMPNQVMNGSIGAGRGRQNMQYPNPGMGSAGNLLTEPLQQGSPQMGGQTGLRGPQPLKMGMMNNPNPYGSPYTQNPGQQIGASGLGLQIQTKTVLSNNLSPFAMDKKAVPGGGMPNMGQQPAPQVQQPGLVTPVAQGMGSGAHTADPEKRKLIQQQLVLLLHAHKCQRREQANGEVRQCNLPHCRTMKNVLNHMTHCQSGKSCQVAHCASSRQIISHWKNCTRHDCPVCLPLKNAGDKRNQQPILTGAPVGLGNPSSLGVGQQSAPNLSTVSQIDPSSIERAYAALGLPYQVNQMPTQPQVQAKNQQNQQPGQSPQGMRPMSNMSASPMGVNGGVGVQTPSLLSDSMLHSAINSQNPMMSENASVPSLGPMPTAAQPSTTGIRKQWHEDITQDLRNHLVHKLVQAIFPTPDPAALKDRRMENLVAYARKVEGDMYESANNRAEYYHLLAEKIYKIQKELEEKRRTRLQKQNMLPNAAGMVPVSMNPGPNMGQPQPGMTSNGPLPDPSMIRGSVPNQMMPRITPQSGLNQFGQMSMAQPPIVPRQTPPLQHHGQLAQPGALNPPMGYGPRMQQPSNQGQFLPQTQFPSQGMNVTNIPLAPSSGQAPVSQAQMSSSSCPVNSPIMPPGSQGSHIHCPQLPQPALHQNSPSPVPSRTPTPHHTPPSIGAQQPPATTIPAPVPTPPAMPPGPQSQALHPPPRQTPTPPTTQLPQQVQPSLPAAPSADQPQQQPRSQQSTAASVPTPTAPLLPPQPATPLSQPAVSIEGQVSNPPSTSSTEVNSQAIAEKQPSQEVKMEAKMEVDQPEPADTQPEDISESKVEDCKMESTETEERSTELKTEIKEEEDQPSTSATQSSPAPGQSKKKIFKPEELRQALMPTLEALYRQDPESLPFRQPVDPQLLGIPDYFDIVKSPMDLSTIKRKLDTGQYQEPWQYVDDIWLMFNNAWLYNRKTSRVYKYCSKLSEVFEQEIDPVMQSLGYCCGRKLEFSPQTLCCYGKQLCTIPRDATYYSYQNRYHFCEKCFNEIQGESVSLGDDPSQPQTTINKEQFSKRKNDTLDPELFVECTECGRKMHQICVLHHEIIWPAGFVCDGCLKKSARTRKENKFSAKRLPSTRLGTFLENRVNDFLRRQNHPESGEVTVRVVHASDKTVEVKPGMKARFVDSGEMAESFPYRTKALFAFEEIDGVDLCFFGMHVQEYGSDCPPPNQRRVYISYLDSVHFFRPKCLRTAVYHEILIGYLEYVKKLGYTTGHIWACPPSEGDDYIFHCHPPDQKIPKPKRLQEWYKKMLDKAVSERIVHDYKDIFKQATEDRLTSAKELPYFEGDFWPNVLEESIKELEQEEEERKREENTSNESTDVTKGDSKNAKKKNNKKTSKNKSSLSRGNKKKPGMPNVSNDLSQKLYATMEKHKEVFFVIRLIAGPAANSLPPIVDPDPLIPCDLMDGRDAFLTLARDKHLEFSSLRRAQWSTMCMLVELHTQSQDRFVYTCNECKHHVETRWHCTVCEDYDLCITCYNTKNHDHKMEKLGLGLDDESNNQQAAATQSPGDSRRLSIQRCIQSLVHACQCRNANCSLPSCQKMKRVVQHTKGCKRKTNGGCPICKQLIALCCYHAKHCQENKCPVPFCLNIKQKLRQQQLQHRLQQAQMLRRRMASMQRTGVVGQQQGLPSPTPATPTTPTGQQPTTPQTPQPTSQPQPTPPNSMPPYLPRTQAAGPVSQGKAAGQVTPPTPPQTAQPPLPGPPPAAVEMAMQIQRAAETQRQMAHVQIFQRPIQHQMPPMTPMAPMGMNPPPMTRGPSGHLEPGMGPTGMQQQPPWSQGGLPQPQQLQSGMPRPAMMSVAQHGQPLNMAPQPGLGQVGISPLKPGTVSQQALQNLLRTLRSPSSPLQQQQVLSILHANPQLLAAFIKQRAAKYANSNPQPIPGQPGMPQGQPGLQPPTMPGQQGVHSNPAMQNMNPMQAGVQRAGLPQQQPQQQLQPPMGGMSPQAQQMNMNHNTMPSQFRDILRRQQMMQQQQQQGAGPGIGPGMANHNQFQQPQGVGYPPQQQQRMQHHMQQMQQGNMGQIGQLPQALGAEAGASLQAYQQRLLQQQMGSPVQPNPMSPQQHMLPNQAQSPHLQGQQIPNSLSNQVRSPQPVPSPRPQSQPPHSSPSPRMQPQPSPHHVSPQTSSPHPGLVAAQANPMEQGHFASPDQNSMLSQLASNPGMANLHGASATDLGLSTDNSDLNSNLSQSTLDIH
T2 sequence (Q92793 whole entry): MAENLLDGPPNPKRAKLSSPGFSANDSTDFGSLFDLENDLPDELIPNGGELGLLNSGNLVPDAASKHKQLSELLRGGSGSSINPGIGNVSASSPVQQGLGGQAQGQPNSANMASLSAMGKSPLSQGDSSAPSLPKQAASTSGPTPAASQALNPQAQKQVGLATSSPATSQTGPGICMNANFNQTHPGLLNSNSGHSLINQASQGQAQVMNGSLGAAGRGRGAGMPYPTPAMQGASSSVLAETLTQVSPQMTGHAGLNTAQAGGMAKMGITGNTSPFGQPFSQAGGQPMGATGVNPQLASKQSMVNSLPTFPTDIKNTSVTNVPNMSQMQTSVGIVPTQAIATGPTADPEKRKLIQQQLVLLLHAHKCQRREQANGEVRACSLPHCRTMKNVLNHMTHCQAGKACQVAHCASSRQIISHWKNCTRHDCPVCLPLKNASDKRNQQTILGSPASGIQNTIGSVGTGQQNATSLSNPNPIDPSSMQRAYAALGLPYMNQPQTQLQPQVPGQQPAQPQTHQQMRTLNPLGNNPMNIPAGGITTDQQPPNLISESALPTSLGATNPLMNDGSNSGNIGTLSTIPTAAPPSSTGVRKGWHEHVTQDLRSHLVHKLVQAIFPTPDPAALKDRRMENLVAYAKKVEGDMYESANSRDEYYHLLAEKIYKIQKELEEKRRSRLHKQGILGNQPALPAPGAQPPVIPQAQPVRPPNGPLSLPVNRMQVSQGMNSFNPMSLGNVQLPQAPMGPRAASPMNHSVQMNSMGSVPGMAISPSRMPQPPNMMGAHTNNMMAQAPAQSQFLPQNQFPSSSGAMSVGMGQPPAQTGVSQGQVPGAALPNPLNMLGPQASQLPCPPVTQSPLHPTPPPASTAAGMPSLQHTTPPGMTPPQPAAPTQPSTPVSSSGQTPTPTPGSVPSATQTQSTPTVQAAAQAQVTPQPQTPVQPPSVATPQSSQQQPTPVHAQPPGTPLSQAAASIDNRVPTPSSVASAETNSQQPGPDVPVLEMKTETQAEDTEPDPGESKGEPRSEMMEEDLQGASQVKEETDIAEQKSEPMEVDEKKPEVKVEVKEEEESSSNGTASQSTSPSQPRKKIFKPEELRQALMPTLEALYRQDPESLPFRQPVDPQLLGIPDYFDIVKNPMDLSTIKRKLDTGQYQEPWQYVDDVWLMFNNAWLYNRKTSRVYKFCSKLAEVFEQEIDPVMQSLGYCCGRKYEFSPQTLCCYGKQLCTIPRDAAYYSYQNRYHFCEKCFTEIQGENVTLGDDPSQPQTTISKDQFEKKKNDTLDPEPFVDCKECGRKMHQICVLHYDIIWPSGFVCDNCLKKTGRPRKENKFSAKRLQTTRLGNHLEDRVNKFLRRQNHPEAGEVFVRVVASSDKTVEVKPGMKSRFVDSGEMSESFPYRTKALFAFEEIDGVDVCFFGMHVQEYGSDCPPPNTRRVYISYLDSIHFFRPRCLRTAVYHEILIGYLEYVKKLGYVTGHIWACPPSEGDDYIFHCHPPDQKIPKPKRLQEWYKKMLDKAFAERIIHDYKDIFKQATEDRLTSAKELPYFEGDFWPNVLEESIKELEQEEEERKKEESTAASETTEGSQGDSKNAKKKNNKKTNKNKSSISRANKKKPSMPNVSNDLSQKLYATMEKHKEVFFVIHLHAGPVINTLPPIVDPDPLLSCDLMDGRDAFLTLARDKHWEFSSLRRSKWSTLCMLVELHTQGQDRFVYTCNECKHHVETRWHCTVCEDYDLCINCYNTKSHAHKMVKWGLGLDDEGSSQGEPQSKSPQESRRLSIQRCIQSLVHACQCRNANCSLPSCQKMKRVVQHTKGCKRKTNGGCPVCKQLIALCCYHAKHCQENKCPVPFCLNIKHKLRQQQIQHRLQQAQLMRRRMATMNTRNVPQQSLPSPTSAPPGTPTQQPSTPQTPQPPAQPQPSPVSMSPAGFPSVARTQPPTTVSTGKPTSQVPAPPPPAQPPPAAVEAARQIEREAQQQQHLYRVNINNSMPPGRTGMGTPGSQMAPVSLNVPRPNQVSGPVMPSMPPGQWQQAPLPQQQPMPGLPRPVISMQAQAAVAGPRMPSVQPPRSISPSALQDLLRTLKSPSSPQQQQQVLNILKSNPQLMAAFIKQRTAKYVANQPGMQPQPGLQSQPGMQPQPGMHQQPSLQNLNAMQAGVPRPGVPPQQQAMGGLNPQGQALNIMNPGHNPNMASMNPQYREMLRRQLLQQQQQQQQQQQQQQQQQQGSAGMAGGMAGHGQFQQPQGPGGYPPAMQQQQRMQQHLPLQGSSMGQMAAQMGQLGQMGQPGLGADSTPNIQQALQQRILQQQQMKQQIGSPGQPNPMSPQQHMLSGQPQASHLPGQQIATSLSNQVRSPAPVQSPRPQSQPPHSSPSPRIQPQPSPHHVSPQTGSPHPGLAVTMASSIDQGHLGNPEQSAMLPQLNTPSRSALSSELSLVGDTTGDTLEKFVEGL

Structure (SMILES)	Dmax (p300)	DC50 (p300)	DC50 (CBP)	Dmax (CBP)
CC(C)c1cc(-c2cn(C)c(=O)c3cc(-c4ccc(C(=O)NCC#Cc5ccc6occ(C7CCC(=O)NC7=O)c6c5)nc4)ncc23)cc2c1n(C)c(=O)n2C (centres unmarked) [Example A97, N-(3-(3-(2,6-dioxo-piperidin-3-yl)benzofuran-5-yl)prop-2-yn-1-yl)-5-(8-(7-isopropyl-1,3-dimethyl-2-oxo-2,3-dihydro-1H-benzo [d]imidazol-5-yl)-6-methyl-5-oxo-5,6-dihydro-2,6-naphthyridin-3-yl) picolinamide]	> 80%	1 to 9.9 nM	10 to 99 nM	40 to 59%
Cn1c(=O)n(C)c2c(N3C4COCC3C4)nc(-c3cccc4cc(-c5ccc(C(=O)NCC#Cc6ccc7occ(C8CCC(=O)NC8=O)c7c6)nc5)ncc34)cc21 (centres unmarked) [Example A99, 5-(8-(4-(3-oxa-6-azabicyclo[3.1.1]heptan-6-yl)-1,3-dimethyl-2-oxo-2,3-dihydro-1H-imidazo[4,5-c]pyridin-6-yl)isoquinolin-3-yl)-N-(3-(3-(2,6-dioxo-piperidin-3-yl)benzofuran-5-yl)prop-2-yn-1-yl)picolinamide]	> 80%	< 1 nM	> 1000 nM	< 20%
CC(C)c1cc(N2CCCc3cc(-c4ccc(C(=O)NCC#Cc5ccc6occ(C7CCC(=O)NC7=O)c6c5)nc4)ncc32)cc2c1n(C)c(=O)n2C (centres unmarked) [Example A100, N-(3-(3-(2,6-dioxo-piperidin-3-yl)benzofuran-5-yl)prop-2-yn-1-yl)-5-(1-(7-isopropyl-1,3-dimethyl-2-oxo-2,3-dihydro-1H-benzo [d]imidazol-5-yl)-1,2,3,4-tetrahydro-1,7-naphthyridin-6-yl)picolinamide]	> 80%	1 to 9.9 nM	10 to 99 nM	20 to 39%
CN1CCN(c2nc(-c3cccc4cc(-c5ccc(C(=O)NCC#Cc6ccc7occ(C8CCC(=O)NC8=O)c7c6)nc5)ncc34)cc3c2n(C)c(=O)n3C)CC1 (centres unmarked) [Example A102, 5-(8-(1,3-dimethyl-4-(4-methylpiperazin-1-yl)-2-oxo-2,3-dihydro-1H-imidazo[4,5-c]pyridin-6-yl)iso-quinolin-3-yl)-N-(3-(3-(2,6-dioxopiperidin-3-yl)benzofuran-5-yl)prop-2-yn-1-yl) picolinamide]	> 80%	< 1 nM	> 1000 nM	< 20%
CCn1c(=O)n(C)c2c(N3CCOCC3)nc(-c3cccc4cc(-c5ccc(C(=O)NCC#Cc6ccc7occ(C8CCC(=O)NC8=O)c7c6)nc5)ncc34)cc21 (centres unmarked) [Example A108, N-(3-(3-(2,6-dioxo-piperidin-3-yl)benzofuran-5-yl)prop-2-yn-1-yl)-5-(8-(1-ethyl-3-methyl-4-morpholino-2-oxo-2,3-dihydro-1H-imidazo[4,5-c]pyridin-6-yl)isoquinolin-3-yl)picolinamide]	> 80%	1 to 9.9 nM	> 1000 nM	< 20%
Cc1cc(-c2cc3c(cc2F)N(c2ccc4c(c2)n(C)c(=O)n4C)CCO3)cnc1C(=O)NCC#Cc1ccc2occ(C3CCC(=O)NC3=O)c2c1 (centres unmarked) [Example A111, 5-(4-(1,3-dimethyl-2-oxo-2,3-dihydro-1H-benzo[d]imidazol-5-yl)-6-fluoro-3,4-dihydro-2H-benzo[b] [1,4]oxazin-7-yl)-N-(3-(3-(2,6-dioxo-piperidin-3-yl)benzofuran-5-yl)prop-2-yn-1-yl)-3-methylpicolinamide]	> 80%	10 to 99 nM	> 1000 nM	< 20%
Cn1c(=O)n(C)c2c(N3CC(O)C3)nc(-c3cccc4cc(-c5ccc(C(=O)NCC#Cc6ccc7occ(C8CCC(=O)NC8=O)c7c6)nc5)ncc34)cc21 (centres unmarked) [Example A115, N-(3-(3-(2,6-dioxo-piperidin-3-yl)benzofuran-5-yl)prop-2-yn-1-yl)-5-(8-(4-(3-hydroxyazetidin-1-yl)-1,3-dimethyl-2-oxo-2,3-dihydro-1H-imidazo[4,5-c]pyridin-6-yl)isoquinolin-3-yl)picolinamide]	> 80%	< 1 nM	> 1000 nM	< 20%
Cn1c(=O)n(C)c2cc(-c3cccc4cc(-c5ccc(C(=O)NCC#Cc6ccc7occ(C8CCC(=O)NC8=O)c7c6)nc5)ncc34)ccc21 (centres unmarked) [Example A119, 5-(8-(1,3-dimethyl-2-oxo-2,3-dihydro-1H-benzo[d]imidazol-5-yl)isoquinolin-3-yl)-N-(3-(3-(2,6-dioxo-piperidin-3-yl)benzofuran-5-yl)prop-2-yn-1-yl)picolinamide]	> 80%	1 to 9.9 nM	> 1000 nM	< 20%
CC(C)c1cc(N2CCOc3cc(-c4ccc(C(=O)NCC#Cc5ccc6occ(C7CCC(=O)NC7=O)c6c5)nc4)ccc32)cc2c1n(C)c(=O)n2C (centres unmarked) [Example A121, N-(3-(3-(2,6-dioxo-piperidin-3-yl)benzofuran-5-yl)prop-2-yn-1-yl)-5-(4-(7-isopropyl-1,3-dimethyl-2-oxo-2,3-dihydro-1H-benzo [d]imidazol-5-yl)-3,4-dihydro-2H-benzo [b][1,4]oxazin-7-yl)picolinamide]	60 to 79%	10 to 99 nM	> 1000 nM	< 20%
CN1CCN(c2ccc3c(c2)n(C)c(=O)n3C)c2cnc(-c3ccc(C(=O)NCC#Cc4ccc5occ(C6CCC(=O)NC6=O)c5c4)nc3)nc21 (centres unmarked) [Example A122, 5-(5-(1,3-dimethyl-2-oxo-2,3-dihydro-1H-benzo[d]imidazol-5-yl)-8-methyl-5,6,7,8-tetrahydropteridin-2-yl)-N-(3-(3-(2,6-dioxopiperidin-3-yl)benzofuran-5-yl)prop-2-yn-1-yl)picolinamide]	> 80%	< 1 nM	> 1000 nM	< 20%
Cn1c(=O)n(C)c2c(N3CCC(O)CC3)nc(-c3cccc4cc(-c5ccc(C(=O)NCC#Cc6ccc7occ(C8CCC(=O)NC8=O)c7c6)nc5)ncc34)cc21 (centres unmarked) [Example A124, N-(3-(3-(2,6-dioxo-piperidin-3-yl)benzofuran-5-yl)prop-2-yn-1-yl)-5-(8-(4-(4-hydroxypiperidin-1-yl)-1,3-dimethyl-2-oxo-2,3-dihydro-1H-imidazo[4,5-c]pyridin-6-yl)isoquinolin-3-yl)picolinamide]	> 80%	< 1 nM	> 1000 nM	< 20%

Continued, values first:

Dmax (p300)	DC50 (p300)	DC50 (CBP)	Dmax (CBP)	Structure (SMILES)
> 80%	< 1 nM	> 1000 nM	< 20%	Cn1c(=O)n(C)c2c(N3CCOCC3)cc(N3CCCc4nc(-c5ccc(C(=O)NCC#Cc6ccc7occ(C8CCC(=O)NC8=O)c7c6)nc5)ncc43)cc21 (centres unmarked) [Example A127, 5-(5-(1,3-dimethyl-7-morpholino-2-oxo-2,3-dihydro-1H-benzo [d]imidazol-5-yl)-5,6,7,8-tetrahydro-pyrido[3,2-d]pyrimidin-2-yl)-N-(3-(3-(2,6-dioxopiperidin-3-yl)benzofuran-5-yl)prop-2-yn-1-yl)picolinamide]
> 80%	1 to 9.9 nM	> 1000 nM	< 20%	Cn1c(=O)n(C)c2cc(N3CCCc4nc(-c5ccc(C(=O)NCC#Cc6ccc7occ(C8CCC(=O)NC8=O)c7c6)nc5)ncc43)ccc21 (centres unmarked) [Example A132, 5-(5-(1,3-dimethyl-2-oxo-2,3-dihydro-1H-benzo[d]imidazol-5-yl)-5,6,7,8-tetrahydropyrido[3,2-d]pyrimidin-2-yl)-N-(3-(3-(2,6-dioxo-piperidin-3-yl)benzofuran-5-yl)prop-2-yn-1-yl)picolinamide]
> 80%	1 to 9.9 nM	100 to 999 nM	< 20%	CC(C)c1cc(N2CCCc3nc(-c4ccc(C(=O)NCC#Cc5ccc6occ(C7CCC(=O)NC7=O)c6c5)nc4)ncc32)cc2c1n(C)c(=O)n2C (centres unmarked) [Example A133, N-(3-(3-(2,6-dioxo-piperidin-3-yl)benzofuran-5-yl)prop-2-yn-1-yl)-5-(5-(7-isopropyl-1,3-dimethyl-2-oxo-2,3-dihydro-1H-benzo [d]imidazol-5-yl)-5,6,7,8-tetrahydro-pyrido[3,2-d]pyrimidin-2-yl)picolinamide]
> 80%	1 to 9.9 nM	> 1000 nM	< 20%	Cn1c(=O)n(C)c2c(N3CC4(COC4)C3)nc(-c3cccc4cc(-c5ccc(C(=O)NCC#Cc6ccc7occ(C8CCC(=O)NC8=O)c7c6)nc5)ncc34)cc21 (centres unmarked) [Example A136, 5-(8-(1,3-dimethyl-2-oxo-4-(2-oxa-6-azaspiro[3.3]heptan-6-yl)-2,3-dihydro-1H-imidazo[4,5-c]pyridin-6-yl)isoquinolin-3-yl)-N-(3-(3-(2,6-dioxopiperidin-3-yl)benzofuran-5-yl)prop-2-yn-1-yl)picolinamide]
> 80%	< 1 nM	> 1000 nM	< 20%	Cn1c(=O)n(C)c2c(N3CCOCC3)nc(-c3cccc4cc(-c5ccc(C(=O)NCC#Cc6ccc7occ(C8CCC(=O)NC8=O)c7c6)nc5)ncc34)cc21 (centres unmarked) [Example A138, 5-(8-(1,3-dimethyl-4-morpholino-2-oxo-2,3-dihydro-1H-imidazo[4,5-c]pyridin-6-yl)isoquinolin-3-yl)-N-(3-(3-(2,6-dioxopiperidin-3-yl)benzofuran-5-yl)prop-2-yn-1-yl)picolinamide]
> 80%	< 1 nM	> 1000 nM	< 20%	CN1CCN(c2ccc3c(c2)n(C)c(=O)n3C)c2cnc(-c3ccc(C(=O)NCC#Cc4ccc5occ(C6CCC(=O)NC6=O)c5c4)nc3)cc21 (centres unmarked) [Example A139, 5-(4-(1,3-dimethyl-2-oxo-2,3-dihydro-1H-benzo[d]imidazol-5-yl)-1-methyl-1,2,3,4-tetrahydropyrido[3,4-b]pyrazin-7-yl)-N-(3-(3-(2,6-dioxo-piperidin-3-yl)benzofuran-5-yl)prop-2-yn-1-yl)picolinamide]

Reference: patent publication US20250114345A1, “COMPOUNDS AND COMPOSITIONS AS CBP/P300 DEGRADERS AND USES THEREOF” (Oncopia Therapeutics, Inc. d/b/a/ SK Life Science Labs, priority 2023, published 2025)
